Measurements as given in patent publication EP0305184A1, “Pyrimidines or their pharmaceutically acceptable salts thereof” (MITSUI PHARMACEUTICALS, INC., priority 1987, dated 1989).
“And” between values parts separate entries of the source, which are not always exact repeats. Identical values can stand only once. Like-named read-outs stand apart in the source and are kept apart here.

Columns and labels:
mouse = test: Acute toxicity; type: in vivo; details: p.o., 24 hours after administration
Procedure: (§1) The acute toxicity of the compounds of the invention was examined by the following method.
(§2) Male ddy-strain 5-week old mice and male Wistar-strain 8 week old rats, five per group, were used as experimental animals. Each of the compounds was dissolved in saline and administered perorally (p.o.) or intraperitoneally (i.p.), and the toxicity of the compound was assessed 24 hours after the administration.

Acute toxicity = type: in vivo; details: in vivo, mouse, 24 hours after administration
Procedure: as §1, §2

[1] = tested on: mice with nerve disorder induced by mercury poisoning; test: T-shaped maze learning and memory of mice with mercury poisoning; type: in vivo, Male BalbC strain mice; details: 102 69.5, 116 76.9 mg/kg.ip/day; for running time: mean ± SE, after MMC; for Number of mice which ran to the safety area within 5 seconds: numerator: at least 8 of ten runs within 5 seconds, denominator: mice tested, after MMC 6 mg/kg/day
Procedure: Male BalbC strain mice, 7 weeks old, were first caused to learn a T-shaped maze three times in a week so that they run straight from a starting point to a safety area. Then, methylmercury chloride (MMC for short) was administered orally in a dose of 6 mg/kg/day for 6 days. A group of mice to which saline was administered in a dose of 0.1 ml/10 g/day was used as a control group. Beginning with the day next to the day of administering MMC, compounds Nos. 102 and 116 were intraperitoneally administered over 10 days in a dose of 69.5 mg/kg/day and 76.9 mg/kg/day, respectively, so as to make the mole numbers of the compounds equal. On the sixth day after administration of the drug (namely, on the 12th day after start of the experiment), learning of the T-shaped maze was resumed, and the running behaviors of the mice were observed. The number of mice which could be experimented in the T-shaped maze on the 10th and 11th days after the resumption (21st and 22nd days after the start of the experiment) was counted and expressed as a denominator. The number of mice which ran to the safety area within 5 seconds at least 8 times out of ten trial runnings was counted and expressed as a numerator. The decrease in the number of the test animals was due to death by MMC poisoning. The time (seconds) required for the animals to run to the safety area was measured, and the mean ± standard error (SE) was calculated.

[2] = tested on: rats having the lesioned nigral dopaminergic nerve cells; test: Methamphetamine-induced rotational movement after 6-hydroxydopamine lesion and fetal dopamine cell transplantation; type: in vivo, female Wistar rats
Procedure: Nigral dopaminergic nerve cells at the left side of the brain of 4-week old female Wistar rats (body weight 100 g) were lesioned by injecting a very small quantity of 6-hydroxydopamine. […] Upon administration of methamphethamine (5 mg/kg, i.p.) to the rats having the lesioned nigral dopaminergic nerve cells, they began rotational movement toward the lesioned side.
After two weeks from the destruction by the administration of the drug, portions of the truncus corporis callosi containing dopamine cells (i. e., substantia nigra and the tagmentum at the abdomen side) were cut from the brain of a fetal rat of 14 to 17 days of age, cut finely, and treated with trypsin. Then, the extracted tissues were incubated at 37°C for 30 minutes, and the tissues were subjected to pipetting to form a suspension. Five microliters of the suspension was transplanted each into two sites of the caudate nucleus of the lesioned side (10 microliters in total, about 10⁵ cells).
Each of the compounds (I) in a dose of 100 mg/kg (i.p.) was administered every day over two weeks from the day of transplantation. The rotational movements induced by administration of methamphetamine were examined 2 weeks and 1 week before, and 2 weeks and 4 weeks after, the transplantation and the administration of the drug. The number of rotational movements within one minute was counted at intervals of 10 minutes after the administration of methamphetamine, and the total number of rotational movements counted six times was averaged to find a mean number of the rotational movements.

[3] = tested on: rats with crushed sciatic nerves; test: Curative effect on rats with crushed sciatic nerves; type: in vivo, male Wistar rats; details: i.p. once a day, Compound 118 30 mg/kg, Mecobalamin 0.5 mg/kg, mean ± S.E.; for Rate of recovery in muscle weight (%): soleus muscle, crushed side/normal side
Procedure: The curing effect of the compound (I) of the invention was tested on rats having crushed sciatic nerves as a model of peripheral nervous disorder using (1) a change in the action of the hind paw with the crushed sciatic nerves and (2) a change in the weight of the muscle as an index of the course of degeneration and regeneration of peripheral nerves.
In the experiment, male Wistar rats (6 weeks old), seven per group, were used. The sciatic nerves were crushed by a method similar to the method of Yamatsu et al. (see Kiyomi Yamatsu, Takenori Kaneko, Akifumi Kitahara and Isao Ohkawa, Journal of Japanese Pharmacological Society, 72, 259-268 (1976) and the method of Hasegawa et al. (see Kazuo Hasegawa, Naoji Mikuni and Yutaka Sakai, Journal of Japanese Pharmacological Society, 74 721-734 (1978). Specifically, under anesthesia with pentobarbital (40 mg/kg, i.p.), the left side sciatic nerve was exposed at the femur and that site of the exposed sciatic nerve which was 5 mm to the center from the branched part between the N. tibialis and the N. suralis was crushed using a modified artery, klomme, having a width of 2 mm and a gap of 0.1 mm. After the operation, the rats were assigned to the test groups at random.
Compound No. 118 was selected as the compound (I) of the invention and intraperitoneally administered to the rats once a day from the day of operation to the 22nd day. A group to which mecobalamin (made by Gedeon Richter Ltd.) was administered and a group to which 0.9 % saline was administered were used as controls. The following items were measured with the lapse of time (on the lst, 4th, 7th, 10th, 14th, 17th, 21st, and 23rd days after the crushing of the sciatic nerves).
By a method similar to the method of Hasegawa [Hasegawa, K., Experientia, 34, 750-751 (1978)], the distance between the first and fifth digits of the hind paw was measured.
The ratio of the measured distance to the normal distance was calculated and expressed in percentage (%).
It is known that the removal of a nerve or its disorder causes atrophy of the muscle which is under its control, and the atrophy is gradually cured by re-control by the nerve. For this reason, a change in the weight of the muscle, which is quantitative, was selected as an index. Twenty-three days after the operation, the soleus muscles of both sides of paws were extracted under anesthesia with pentobarbital, and their weights were measured. The ratio of the weight of the soleus muscle on the crushed side to that of normal side was calculated and expressed in percentage (%).

[4] = po, p.o., read-out: Estimated LD₅₀ (mg/kg, p.o.)
[5] = ip, i.p., read-out: Estimated LD₅₀ (mg/kg, i.p.)

SMILES: CC(C)Nc1ncc2c(n1)N(C)C(=O)C2.Cl [Compound 102, 2-iso-Propylamino-5,6-dihydro-7-methyl-6-oxo(7H)pyrrolo[2,3-d]pyrimidine hydrochloride]
- Number of dead animals/number of animals tested (mouse; Dose 1000 mg/kg): 0/5
- LD50 at 24 h (Acute toxicity; [4]): > 1000 mg/kg
- running time ([1]; 10th day after resumption): 2.1 ± 0.2 s
- Number of mice which ran to the safety area within 5 seconds ([1]; 10th day after resumption): 6/6
- running time ([1]; 11th day after resumption): 3.0 ± 0.6 s
- Number of mice which ran to the safety area within 5 seconds ([1]; 11th day after resumption): 6/6

SMILES: CC(C)Nc1ncc2c(n1)N(C)C(=O)C2.O=C(O)/C=C\C(=O)O [Compound 104, 2-iso-Propylamino-5,6-dihydro-7-methyl-6-oxo(7H)pyrrolo[2,3-d]pyrimidine maleate]
- Number of rotational movements of rats and average values thereof (mean ±S.D.) ([2]; 2W after transplantation, 100 mg/kg (i.p.) every day over two weeks, maleate, 100 mg/kg): 2.0±3.2 and 3.1±3.8
- Number of rotational movements of rats and average values thereof (mean ±S.D.) ([2]; -1W (before transplantation and drug administration, baseline), maleate): 10.8±3.8 and 10.4±5.2
- Number of rotational movements of rats and average values thereof (mean ±S.D.) ([2]; -2W (before transplantation and drug administration, baseline), maleate): 12.3±3.7 and 10.1±6.1

SMILES: CN(C)c1ncc2c(n1)N(C)C(=O)C2 [Compound 108]
- Number of dead animals/number of animals tested (mouse; Dose 1000 mg/kg): 2/5
- LD50 at 24 h (Acute toxicity; [4]): > 1000 mg/kg

SMILES: CN1C(=O)Cc2cnc(N3CCCC3)nc21 [Compound 112]
- Number of dead animals/number of animals tested (mouse; Dose 1000 mg/kg): 0/5
- LD50 at 24 h (Acute toxicity; [4]): > 1000 mg/kg

SMILES: CN1C(=O)Cc2cnc(N3CCCCC3)nc21 [Compound 118]
- Number of dead animals/number of animals tested (mouse; Dose 1000 mg/kg): 0/5
- LD50 at 24 h (Acute toxicity; [5]): 500 to 1000 mg/kg
- LD50 at 24 h (Acute toxicity; [4]): > 1000 mg/kg
- Number of rotational movements of rats and average values thereof (mean ±S.D.) ([2]; 2W after transplantation, 100 mg/kg (i.p.) every day over two weeks): 1.9±3.2
- Number of rotational movements of rats and average values thereof (mean ±S.D.) ([2]; -1W (before transplantation and drug administration, baseline)): 13.9±7.4 and 10.8±4.9
- Number of rotational movements of rats and average values thereof (mean ±S.D.) ([2]; -2W (before transplantation and drug administration, baseline)): 9.1±5.6
- Number of rotational movements of rats and average values thereof (mean ±S.D.) ([2]; column headed 3W, footnote: * Data at 2 W, 100 mg/kg (i.p.) every day over two weeks): *5.5±7.2
- Rate of recovery of the interdigit distance (%) ([3]; 21st day): 79.8±2.5 %
- Rate of recovery of the interdigit distance (%) ([3]; 23rd day): 87.9±3.3 %
- Rate of recovery in muscle weight (%) ([3]; 23rd day): 59.6±2.8 %

SMILES: CN1C(=O)Cc2cnc(N3CCOCC3)nc21 [Compound 122]
- Number of dead animals/number of animals tested (mouse; Dose 1000 mg/kg): 1/5
- LD50 at 24 h (Acute toxicity; [4]): > 1000 mg/kg

SMILES: CN1C(=O)Cc2cnc(N3CCSCC3)nc21 [Compound 126]
- Number of dead animals/number of animals tested (mouse; Dose 1000 mg/kg): 0/5
- LD50 at 24 h (Acute toxicity; [4]): > 1000 mg/kg

SMILES: CCN(CC)C(=O)N1CCN(c2ncc3c(n2)N(C)C(=O)C3)CC1 [Compound 132, 2-Diethylaminocarbonylpiperazino-5,6-dihydro-7-methyl-oxo(7H)pyrrolo[2,3-d]pyrimidine]
- Number of dead animals/number of animals tested (mouse; Dose 1000 mg/kg): 1/5
- LD50 at 24 h (Acute toxicity; [4]): > 1000 mg/kg

SMILES: CN1CCN(c2ncc3c(n2)N(C)C(=O)C3)CC1 [Compound 138]
- Number of dead animals/number of animals tested (mouse; Dose 1000 mg/kg): 0/5
- LD50 at 24 h (Acute toxicity; [5]): 250 to 500 mg/kg
- LD50 at 24 h (Acute toxicity; [4]): > 1000 mg/kg

SMILES: CC1CCN(c2ncc3c(n2)N(C)C(=O)C3)CC1 [Compound 175]
- LD50 at 24 h (Acute toxicity; [5]): 500 to 1000 mg/kg

SMILES: CN1Cc2nc(N3CCCC3)ncc2C1=O [Compound 216]
- Number of dead animals/number of animals tested (mouse; Dose 550 mg/kg): 0/5
- LD50 at 24 h (Acute toxicity; [4]): > 550 mg/kg

SMILES: CN1Cc2nc(N3CCCCC3)ncc2C1=O [Compound 218]
- Number of dead animals/number of animals tested (mouse; Dose 550 mg/kg): 0/5
- LD50 at 24 h (Acute toxicity; [4]): > 550 mg/kg

SMILES: C/C1=C2/[N-][C@H]([C@H](CC(N)=O)[C@@]2(C)CCC(=O)NC[C@@H](C)OP(=O)([O-])O[C@H]2[C@@H](O)[C@@H](n3cnc4cc(C)c(C)cc43)O[C@@H]2CO)[C@]2(C)N=C(/C(C)=C3N=C(/C=C4N=C1[C@@H](CCC(N)=O)C\4(C)C)[C@@H](CCC(N)=O)[C@]\3(C)CC(N)=O)[C@@H](CCC(N)=O)[C@]2(C)CC(N)=O.[CH3-].[Co+3] [Mecobalamin, reference compound]
- Rate of recovery of the interdigit distance (%) ([3]; 21st day): 79.1±2.6 %
- Rate of recovery of the interdigit distance (%) ([3]; 23rd day): 88.3±4.0 %
- Rate of recovery in muscle weight (%) ([3]; 23rd day): 55.0±3.5%
